# Results taken from patent US20150218238A1, “TREATING DISEASES BY MODULATING A SPECIFIC ISOFORM OF MKL1” (NOVARTIS FORSCHUNGSSTIFTUNG, ZWEIGNIEDERLASSUNG FRIEDRICH …, priority 2012, published 2015).
# System: EcR-293 cells
# Assay: MKL1 localization by immunofluorescence after LPA stimulation
# Assay type: cell-based
# Details: 50 μm LPA, 20 min
# Method: Cells were grown on 4-compartment plastic tissue culture dishes (Greiner Bio-One, Kremsmünster, Austria) and fixed with 100% methanol at −20° C. for 15 min. Anti-MKL1 total mAb hybridoma supernatant was diluted 1:4 in PBS and incubated on the cells for 1.5 h at RT. After washing with PBS, fluorescent secondary antibodies were applied for 1.5 h at RT to visualize the MKL1 staining (1:1000 in PBS). After washing, coverslips were mounted on the cells using ProLong Gold Antifade reagent (life Technologies/Invitrogen).
# Oleoyl-α-lysophosphatidic acid (LPA) was purchased from Sigma-Aldrich (Buchs, Switzerland) and stock solutions were prepared in 1% BSA (Sigma-Aldrich)/PBS. EcR-293 cells stably overexpressing 5′UTR-MKL1_S or 5′UTR-MKL1_L were seeded on plastic dishes precoated with 0.4 mg/ml poly-L-lysine (Sigma-Aldrich) and starved overnight with D-MEM/0.3% FBS. After 18 h starvation, the cells were treated with 50 μm LPA for 0, 5, 20, or 60 min, and subsequently stained with anti-MKL1 total mAb (see immunofluorescence staining). After staining, MKL1 staining of strongly overexpressing cells was classified as predominantly cytosolic (nucleus clearly distinguishable as unstained), equally distributed, or predominantly nuclear (nucleus clearly distinguishable as stained).
substance,measurement,setting,value
Oleoyl-α-lysophosphatidic acid [LPA],cells showing nuclear staining,starved EcR-293 cells expressing MKL1_L,very few
same,cells showing partial or full nuclear MKL1 accumulation,starved EcR-293 cells expressing MKL1_S,two thirds
